Source: patent US20080076760A1, “2,3,4,5-TETRAHYDRO-1H-1,5-BENZODIAZEPINE DERIVATIVE AND MEDICINAL COMPOSITION” (priority 2004, published 2008)
Counter-ions that a name gives are not always drawn.

Tests used:
male ICR mice = test: Acute toxicity study, oral, male ICR mice; type: in vivo, mouse; conditions: single administration in 0.5% methylcellulose, observed 6 days
Procedure: Test compound suspended in 0.5% methylcellulose solution was orally administered to male ICR mice (body weight 25 to 35 g), which were separated into groups each having 5 mice, and body weight change and general symptom after 6 days since administration were observed. During the test period except for 17 to 20 hours before administration and after 2 hours since administration, mice were allowed to take feed and water ad libitum.

V1a receptor = target: T1, V1a receptor (Rattus norvegicus, UniProt P30560); test: V1a receptor antagonism in awake rat (oral administration), inhibition of AVP-induced vasopressure; type: in vivo; conditions: for AVP vasopressure inhibition effect after 8 hours since administration: 8 hours after administration; for maximum vasopressure inhibition rate: one third of the 3 mg/kg SR49059 dose, maximum after 2 to 6 hours since administration, 30 mU/kg AVP i.v.
T1 construct: from tissue; host or cells: whole animal: awake male Sprague-Dawley rats
T1 sequence (P30560 whole entry): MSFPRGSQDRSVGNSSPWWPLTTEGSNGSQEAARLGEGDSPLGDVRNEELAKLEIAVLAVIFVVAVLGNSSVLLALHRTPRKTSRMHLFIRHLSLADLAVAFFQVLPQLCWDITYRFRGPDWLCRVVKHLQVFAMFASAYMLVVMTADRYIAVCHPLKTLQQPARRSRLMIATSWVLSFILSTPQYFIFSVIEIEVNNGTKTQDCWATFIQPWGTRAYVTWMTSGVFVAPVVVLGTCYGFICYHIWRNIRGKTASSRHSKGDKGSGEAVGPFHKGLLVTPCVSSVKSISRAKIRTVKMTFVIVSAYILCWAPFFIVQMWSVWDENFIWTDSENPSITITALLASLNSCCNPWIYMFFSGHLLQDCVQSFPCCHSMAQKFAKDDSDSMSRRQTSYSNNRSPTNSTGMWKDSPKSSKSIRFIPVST
Procedure: One day before evaluation of test compounds, a cannula for blood pressure measurement was inserted into left carotid artery, and a cannula for arginine vasopressin (AVP) administration was inserted into left cervical vein. Blood pressure of artery cannula was measured via pressure transducer during rats were awake. During evaluation of test compounds, elevation breadth of mean blood pressure resulting from intravenous administration of 30 mU/kg of AVP was determined as a vasopressure control, in advance. After test compound was suspended in 0.5% methylcellulose solution and orally administered at 1 to 3 mg/kg, 30 mU/kg of AVP was intravenously administered at fixed time points from 0.5 to 8 hours, and vasopressure value was measured. [Vasopressure inhibition rate (%) at each measurement point after administration]=[(A−B)/A]×100 Wherein, control vasopressure=A, and vasopressure value at each measurement point=B

[1] = target: human vasopressin V2 receptor (Homo sapiens, UniProt P30518); test: Receptor binding study, [3H]AVP displacement on CHO cell membranes, human V2; conditions: [3H]AVP displacement, CHO cell membrane, 25° C., one hour; read-out: Human V2 Ki
Sequence of human vasopressin V2 receptor (P30518 whole entry): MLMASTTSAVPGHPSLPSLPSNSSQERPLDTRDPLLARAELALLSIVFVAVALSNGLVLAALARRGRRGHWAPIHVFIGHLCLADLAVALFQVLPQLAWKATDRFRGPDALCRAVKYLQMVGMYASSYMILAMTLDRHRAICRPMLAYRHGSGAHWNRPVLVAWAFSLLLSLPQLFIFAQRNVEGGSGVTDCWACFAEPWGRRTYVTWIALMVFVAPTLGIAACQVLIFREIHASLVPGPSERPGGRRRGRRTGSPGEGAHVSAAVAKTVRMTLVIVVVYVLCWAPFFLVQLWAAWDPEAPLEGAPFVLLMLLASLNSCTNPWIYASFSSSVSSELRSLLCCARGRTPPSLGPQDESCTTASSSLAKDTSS
Outline: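 Displacement format: test compound over a concentration range competes with constant [3H]AVP (0.5 nM to 1.0 nM) for human V2 sites on CHO membranes, one hour at room temperature (25 °C), Tris-HCl pH 7.4 buffer. Filtration then radioactivity counting; 1 μM non-radioactive AVP gives nonspecific binding.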

[2] = target: human vasopressin V1a receptor (Homo sapiens, UniProt P37288); test: Receptor binding study, [3H]AVP displacement on CHO cell membranes, human V1a; conditions: [3H]AVP displacement, CHO cell membrane, 25° C., one hour; read-out: Human V1a Ki
Sequence of human vasopressin V1a receptor (P37288 whole entry): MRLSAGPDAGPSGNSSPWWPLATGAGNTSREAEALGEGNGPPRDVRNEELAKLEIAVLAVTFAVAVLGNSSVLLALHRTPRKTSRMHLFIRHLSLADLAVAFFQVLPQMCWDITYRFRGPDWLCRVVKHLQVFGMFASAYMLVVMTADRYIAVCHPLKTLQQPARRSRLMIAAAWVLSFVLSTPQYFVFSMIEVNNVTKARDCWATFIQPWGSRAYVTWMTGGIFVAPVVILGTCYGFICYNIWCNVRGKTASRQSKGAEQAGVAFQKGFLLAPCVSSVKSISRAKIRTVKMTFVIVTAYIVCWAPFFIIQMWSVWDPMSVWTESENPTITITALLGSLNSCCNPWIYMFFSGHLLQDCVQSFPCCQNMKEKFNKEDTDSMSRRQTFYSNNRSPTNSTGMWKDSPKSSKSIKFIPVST
Outline: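 Membrane binding in 50 mM Tris-HCl pH 7.4 with MgCl2 and 0.1% BSA, incubated 1 h at 25° C. Bound ligand collected by rapid filtration on glass fiber filters, washed with ice-cold buffer, and counted for radioactivity. Nonspecific binding defined with 1 μM unlabeled AVP.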

| SMILES | Ki [1] | Ki [2] | Toxicity expressing dose (male ICR mice) | AVP vasopressure inhibition effect after 8 hours since administration (V1a receptor) | maximum vasopressure inhibition rate (V1a receptor) |
| --- | --- | --- | --- | --- | --- |
| CCCN(C)CCCCOc1cc(C(=O)N2CC[C@H](C)Nc3ccccc32)ccc1-c1ccc2[nH]ccc2c1 [117 fumarate] | – | – | >300 mg/kg | significant AVP vasopressure inhibition effect | 77.7% |
| CCCCN1CCN(CCCOc2cc(C(=O)N3CC[C@H](C)Nc4ccccc43)ccc2-c2ccc3[nH]ccc3c2)CC1 [122 maleate] | – | – | >300 mg/kg | significant AVP vasopressure inhibition effect | 67.3% |
| CCCN(C)C1CCN(CCOc2cc(C(=O)N3CC[C@H](C)Nc4ccccc43)ccc2-c2ccc3[nH]ccc3c2)CC1 [Example 151, N-[1-[2-[2-(1H-indol-5-yl)-5-[[(4S)-4-methyl-2,3,4,5-tetrahydro-1H-1,5-benzodiazepin-1-yl]carbonyl]phenoxy]ethyl]-4-piperidinyl]-N-methyl-N-propylamine] | 10 nM | 0.25 nM | – | – | – |
| CCCN(C)CCCCOc1cc(C(=O)N2CC[C@H](C)Nc3ccccc32)ccc1-c1ccc(NCC)cc1 [Example 156] | 53 nM | 0.19 nM | – | – | – |
| C[C@H]1CCN(C(=O)c2ccc(-c3ccc4[nH]ccc4c3)c(C(=O)CCCCN(C)C)c2)c2ccccc2N1 [Example 158, 5-(dimethylamino)-1-[2-(1H-indol-5-yl)-5-[[(4S)-4-methyl-2,3,4,5-tetrahydro-1H-1,5-benzodiazepin-1-yl]carbonyl]phenyl]-1-pentanone] | 13 nM | 0.11 nM | – | – | – |
| C[C@H]1CCN(C(=O)c2ccc(-c3ccc4[nH]ccc4c3)c(C(=O)OCCCCN(C)C)c2)c2ccccc2N1 [Example 162, 4-(dimethylamino)butyl 2-(1H-indol-5-yl)-5-[[(4S)-4-methyl-2,3,4,5-tetrahydro-1H-1,5-benzodiazepin-1-yl]carbonyl]benzoate] | 29 nM | 0.13 nM | – | – | – |
| CC1CCN(C(=O)c2ccc(-c3ccc4[nH]ccc4c3)c(OCCCNC(=O)CN)c2)c2ccccc2N1 (stereo not drawn) [Example 169, 2-amino-N-[3-[2-(1H-indol-5-yl)-5-[(4-methyl-2,3,4,5-tetrahydro-1H-1,5-benzodiazepin-1-yl]carbonyl]phenoxy]propyl]acetamide] | 4.9 nM | 0.13 nM | – | – | – |
| CCOC(=O)CC(=O)NCCCOc1cc(C(=O)N2CC[C@H](C)Nc3ccccc32)ccc1-c1ccc2[nH]ccc2c1 [Example 170, ethyl 3-[[3-[2-(1H-indol-5-yl)-5-[[(4S)-4-methyl-2,3,4,5-tetrahydro-1H-1,5-benzodiazepin-1-yl]carbonyl]phenoxy]propyl]amino]-3-oxopropanoate] | 2.6 nM | 0.37 nM | – | – | – |
| CCCCN(C)CCCCOc1cc(C(=O)N2CC[C@H](C)Nc3ccccc32)ccc1-c1ccc2[nH]ccc2c1 [Example 173, N-butyl-4-[2-(1H-indol-5-yl)-5-[[(4S)-4-methyl-2,3,4,5-tetrahydro-1H-1,5-benzodiazepin-1-yl]carbonyl]phenoxy]-N-methyl-1-butaneamine] | 10 nM | 0.21 nM | – | – | – |

Now from value to molecule, other results behind:

| Ki [1] | Ki [2] | SMILES | Toxicity expressing dose (male ICR mice) | AVP vasopressure inhibition effect after 8 hours since administration (V1a receptor) | maximum vasopressure inhibition rate (V1a receptor) |
| --- | --- | --- | --- | --- | --- |
| 53 nM | 0.4 nM | CCCN(C)CCCOc1cc(C(=O)N2CC[C@H](C)Nc3ccccc32)ccc1-c1ccc(NCC)c(F)c1 [Example 154, N-ethyl-3-fluoro-2′-[3-[methyl(propyl)amino]propoxy]-4′-[[(4S)-4-methyl-2,3-4,5-tetrahydro-1H-1,5-benzodiazepin-1-yl]carbonyl][1,1′-biphenyl]-4-amine] | – | – | – |
| 28 nM | 0.28 nM | CCCN(C)CCCOc1cc(C(=O)N2CC[C@H](C)Nc3ccccc32)ccc1-c1ccc(OC(F)F)cc1 [Example 157, N-(3-[[4′-(difluoromethoxy)-4-[[(4S)-4-methyl-2,3,4,5-tetrahydro-1H-1,5-benzodiazepin-1-yl]carbonyl][1,1′-biphenyl]-2-yl]oxy]propyl]-N-methyl-N-propylamine] | – | – | – |
| 11 nM | 0.18 nM | CCCN1CCN(CCCOc2cc(C(=O)N3CC[C@H](C)Nc4ccccc43)ccc2-c2ccc(NCC)cc2)CC1 [Example 159, N-ethyl-4′-[[(4S)-4-methyl-2,3-4,5-tetrahydro-1H-1,5-benzodiazepin-1-yl]carbonyl]-2′-[3-(4-propyl-1-piperazinyl)propoxy][1,1′-biphenyl]-4-amine] | – | – | – |
| 22 nM | 0.2 nM | CCCN1CCN(CCOc2cc(C(=O)N3CC[C@H](C)Nc4ccccc43)ccc2-c2ccc(NCC)cc2)CC1 [Example 160, N-ethyl-4′-[[(4S)-4-methyl-2,3-4,5-tetrahydro-1H-1,5-benzodiazepin-1-yl]carbonyl]-2′-[2-(4-propyl-1-piperazinyl)ethoxy][1,1′-biphenyl]-4-amine] | – | – | – |
| 477 nM | 0.15 nM | CCCN(C)CCCOc1cc(C(=O)N2CC[C@H](C)Nc3ccccc32)ccc1-c1ccc(N)cc1 [Example 164, 2′-[3-[methyl(propyl)amino]propoxy]-4′-[[(4S)-4-methyl-2,3,4,5-tetrahydro-1H-1,5-benzodiazepin-1-yl]carbonyl][1,1′-biphenyl]-4-amine] | – | – | – |
| 92 nM | 0.28 nM | CCCNCCCOc1cc(C(=O)N2CC[C@H](C)Nc3ccccc32)ccc1-c1ccc(NCC)cc1 [Example 165, N-ethyl-4′-[[(4S)-4-methyl-2,3,4,5-tetrahydro-1H-1,5-benzodiazepin-1-yl]carbonyl]-2′-[3-(propylamino)propoxy][1,1′-biphenyl]-4-amine] | – | – | – |
| 7.1 nM | 0.093 nM | CCN(C)CCCCOc1cc(C(=O)N2CC[C@H](C)Nc3ccccc32)ccc1-c1ccc2[nH]ccc2c1 [Example 172, N-ethyl-4-[2-(1H-indol-5-yl)-5-[[(4S)-4-methyl-2,3,4,5-tetrahydro-1H-1,5-benzodiazepin-1-yl]carbonyl]phenoxy]-N-methyl-1-butaneamine] | – | – | – |
| 11 nM | 0.35 nM | CCCCCN(C)CCCCOc1cc(C(=O)N2CC[C@H](C)Nc3ccccc32)ccc1-c1ccc2[nH]ccc2c1 [Example 174, N-[4-[2-(1H-indol-5-yl)-5-[[(4S)-4-methyl-2,3,4,5-tetrahydro-1H-1,5-benzodiazepin-1-yl]carbonyl]phenoxy]butyl]-N-methyl-1-pentaneamine] | – | – | – |
